The numbers were not newly measured in US20080200510A1, “Combination of Organic Compounds” (priority 2005, published 2008), which cites them from elsewhere.

Assay in series [1]: not given
This is another data set of the same source.

The subject of series [2] is diet-induced obesity. The settings on record: preclinical studies; by decreasing body weight, food intake, regulating circulating lipids and energy balance.

With `N#C[C@@H]1CCCN1C(=O)CNC12CC3CC(CC(O)(C3)C1)C2` [Vildagliptin, (S)-1-[(3-hydroxy-1-adamantyl)amino]acetyl-2-cyano-pyrrolidine], under “agent alone, by preserving the incretin effects”, the glycemia entry is listed as “improves glycemia”.

For `Cc1c(C(=O)NN2CCCCC2)nn(-c2ccc(Cl)cc2Cl)c1-c1ccc(Cl)cc1` [rimonabant, N-piperidino-5-(4-chlorophenyl)-1-(2,4-dichlorophenyl)-4-methylpyrazole-3-carboxamide], under “agent by itself”, the body weight entry was “reduction in body weight” and the food intake result is “decrease in food intake”. The “body weight reduction in clinic” value in series [1] was “highly effective to produce body weight reduction”. For the same compound, the “reversal of diet-induced obesity” value in series [2] is on record as “effective in reversing diet-induced obesity”.
